What all share (type): in vivo
The test system of one experiment is Maize (corn). Kind of experiment: Maize field trials 2009, grain yield as indicator of plant health. Particulars: BBCH 55/57; for Yield (kg/ha): seven US locations. On the procedure:
Maize (corn) was grown in 2009 at seven locations in the U.S.A: Wyoming, Ill., Carlyle, Ill., Sparta, Ill., Manilla, Iowa, Blue Earth, Minn., Aurora, Nebr., and Tekamah, Nebr. The maize crop was planted at the local standard seeding rate with local standard row spacing. Each trial was set up as randomized complete block design with 8 replications. Plots consisted of 6-8 rows with the center two rows treated and harvested. Harvested plot size was at minimum 18.48 m^2.
The active ingredients were used as formulations. The formulations were used in the dose rates given below. The products were applied at tassel emergence (BBCH 55/57). […] The untreated control plots were treated with water only.
Grain yield (kg per ha) as an indicator for the health of a plant was assessed by harvesting the plants in the center rows of a plot (table 1). The efficacy was calculated as % increase of yield in the treatments compared to the untreated control using the following formula:
(§1) E=a/b−1•100 • a corresponds to the grain yield of the treated plants in kg/ha and • b corresponds to the grain yield of the untreated (control) plants in kg/ha

Experiment [1] relates to Soybeans. As to the kind of experiment: Soybean leaf chlorophyll content, FIELD SCOUT CM1000 chlorophyll meter, Sparta, Ill. Particulars: Harpinαβ 70 g/ha, Pyraclostrobin 0.44 l/ha. On the procedure: (§2) Soybeans were grown in 2009 at eight locations in the U.S.A.: Jefferson, I A, Seymour, Ill., Sparta, Ill., Wyoming, Ill., Sheridan, Ind., Ozora, Mo., York, Nebr., and Centerville, S. Dak. The soybeans were planted at the local standard seeding rate with local standard row spacing. Each trial was setup as randomized complete block design with 6 replications. Plots consisted of 4 rows with the center two rows treated and harvested. Harvested plot size was minimum 15 m^2.
The active ingredients were used as formulations. The formulations were used in the dose rates given below. The products were applied when the soybeans had developed four to six trifoliates. Pyraclostrobin (compound A) was applied once as HEADLINE® (250 g active per liter; EC formulation) with a product rate of 0.44 I/ha.
The harpinαβ peptide (compound B) was applied as the experimental WG formulation EBC-351 (1% active ingredient) with a product rate of 70 g/ha. The mixture comprising pyraclostrobin and harpinαβ as shown in table 2 below was applied as a tankmix of both formulations.
At the Sparta, Ill., location, the chlorophyll content (a well known indicator of the health of a plant) of 5 plants in a plot was measured with a FIELD SCOUT CM1000™ (Spectrum Technologies, Plainfield, Ill.) chlorophyll meter. Values were reported as a mean value per plot. The FIELD SCOUT CM1000™ senses light at wavelengths of 700 nm and 840 nm to estimate quantity of chlorophyll in leaves. The ambient and reflected light at each wavelength is measured. Light absorbtion at 700 nm by chlorophyll reduces the reflection at this wavelength whereas the light at 840 nm is unaffected and serves as an indication of light reflection due to physical characteristics of the leaf like a hairy leaf surface. Subsequently, a chlorophyll index value (0-999) is calculated from the measured ambient and reflected light data.
Based on the index values the efficacy of the treatments were calculated as described for the grain yield above. Similarly, the expected efficacy was estimated using Colby's formula as described above.

In experiment [2] the test system is Soybeans. As to the kind of experiment: Soybean field trials 2009, grain yield as indicator of plant health. As for the experimental part:
as §2
The active ingredients were used as formulations. The formulations were used in the dose rates given below. The products were applied when the soybeans had developed four to six trifoliates.
The mixture comprising pyraclostrobin and harpinαβ as shown in table 2 below was applied as a tankmix of both formulations.
Grain yield (kg per ha) was assessed as an indicator of plant health (table 2) by harvesting the plants in the center rows of a plot. The efficacy was calculated as % increase of yield in the treatments compared to the untreated control:
as §1

SMILES strings stand for the structures.

On to `COC(=O)N(OC)c1ccccc1COc1ccn(-c2ccc(Cl)cc2)n1` [Pyraclostrobin], for which the “OE [%] (Observed efficacy, % increase of yield compared to the untreated control)” value is given as 1.10% in the experiment with Maize (corn) (Harpinαβ 35 g/ha, Pyraclostrobin 0.3 l/ha, alone or combined); 0.10% in the experiment with Maize (corn) (Pyraclostrobin 0.6 l/ha, Harpinαβ 35 g/ha in the combination); 0.1% in the experiment with Soybeans [2] (Harpinαβ 70 g/ha, Pyraclostrobin 0.44 l/ha, average of all trials). Also, the “Yield (kg/ha)” value with Maize (corn) (product rates Harpinαβ 35 g/ha (1%), Pyraclostrobin 0.3 l/ha (250 g/l), alone or combined) is recorded as 13218.9 kg/ha; in the experiment on Maize (corn) (product rates Pyraclostrobin 0.6 l/ha (250 g/l), Harpinαβ 35 g/ha (1%) in the combination) it was 13087.1 kg/ha; in the experiment with Soybeans [2] (product rates Harpinαβ 70 g/ha (1%), Pyraclostrobin 0.44 l/ha (250 g/l), four to six trifoliates, eight US locations), 3319 kg/ha. Besides, in the experiment on Soybeans [1], the “effect on leaf chlorophyll content, in words” value is “increases the chlorophyll content”. Moreover, the “OE [%] (Observed efficacy, chlorophyll index compared to the untreated control)” value with Soybeans [1] (Sparta, Ill.) was 14.13%. In addition, the “CC [0-999] (Chlorophyll Content, chlorophyll index value)” value with Soybeans [1] (Sparta, Ill., mean value per plot, 5 plants) was found to be 773.50. Moreover, in the experiment with Soybeans [2] (Pyraclostrobin 0.44 l/ha applied at early soybean development), the “effect on grain yield, in words” value is given as “did not increase the grain yield on an average”.

(Values after patent US20130274104A1, “AGROCHEMICAL MIXTURES FOR INCREASING THE HEALTH OF A PLANT” (BASF SE, priority 2010, published 2013).)
